# Results reported in US20240217978A1 (CHONG KUN DANG PHARMACEUTICAL CORP., priority 2021, published 2024).
# pIC50: −log10 of the molar value.
# Molecular target: human adenosine A2a receptor (Homo sapiens (Human), UniProt P29274)
# Assay: A2a receptor binding affinity, [3H]-NECA radioligand binding test
# Conditions: [3H]-NECA 37 nM; membrane from HEK-293 cells transfected with human adenosine A2a receptor
# Summary of the method: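 IC50 values (μM) come from displacement of [3H]-NECA, used at 37 nM final, on human A2a receptor membranes from transfected HEK-293 cells. Incubation lasted one hour at room temperature in Tris/MgCl2/EDTA buffer, pH 7.4; filter-bound radioactivity was counted by scintillation.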
# Chain of human adenosine A2a receptor (P29274 whole entry): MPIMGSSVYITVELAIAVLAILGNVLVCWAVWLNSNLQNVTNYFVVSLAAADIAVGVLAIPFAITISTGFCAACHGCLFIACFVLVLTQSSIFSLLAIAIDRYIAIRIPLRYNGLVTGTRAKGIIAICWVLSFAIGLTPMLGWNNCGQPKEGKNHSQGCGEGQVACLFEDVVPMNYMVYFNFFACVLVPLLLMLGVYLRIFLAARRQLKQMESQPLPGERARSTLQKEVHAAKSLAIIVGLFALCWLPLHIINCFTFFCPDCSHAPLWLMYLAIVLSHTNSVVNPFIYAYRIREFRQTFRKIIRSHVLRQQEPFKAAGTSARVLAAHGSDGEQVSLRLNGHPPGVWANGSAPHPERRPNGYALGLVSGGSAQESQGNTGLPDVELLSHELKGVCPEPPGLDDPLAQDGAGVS
row,Compound,pIC50
1,"Nc1nc(N2CC[C@H]2C(=O)N2CCN(CC(F)(F)C(F)F)CC2)nc2nc(-c3ccco3)nn12 [Example 255, (S)-(1-(7-amino-2-(furan-2-yl)-[1,2,4]triazolo[1,5-a][1,3,5]triazin-5-yl)azetidin-2-yl)(4-(2,2,3,3-tetrafluoropropyl)piperazin-1-yl)methanone]",8.05
2,"Nc1nc(N2CC[C@H]2C(=O)N2CCN(CC(F)(F)C(F)(F)F)CC2)nc2nc(-c3ccco3)nn12 [Example 256, (S)-(1-(7-amino-2-(furan-2-yl)-[1,2,4]triazolo[1,5-a][1,3,5]triazin-5-yl)azetidin-2-yl)(4-(2,2,3,3,3-pentafluoropropyl)piperazin-1-yl)methanone]",9.00
3,"Nc1nc(N2CC[C@H]2C(=O)N2CCN(CC(F)(F)C(F)(F)C(F)(F)F)CC2)nc2nc(-c3ccco3)nn12 [Example 257, (S)-(1-(7-amino-2-(furan-2-yl)-[1,2,4]triazolo[1,5-a][1,3,5]triazin-5-yl)azetidin-2-yl)(4-(2,2,3,3,4,4,4-heptafluorobutyl)piperazin-1-yl)methanone]",9.10
4,"Nc1nc(N2CCC[C@H]2C(=O)N2CCN(CC(F)F)CC2)nc2sc(-c3ccco3)nc12 [Example 258, (S)-(1-(7-amino-2-(furan-2-yl)thiazolo[5,4-d]pyrimidin-5-yl)pyrrolidin-2-yl)(4-(2,2-difluoroethyl)piperazin-1-yl)methanone]",8.10
5,"CC(F)(F)CN1CCN(C(=O)[C@@H]2CCCN2c2nc(N)c3nc(-c4ccco4)sc3n2)CC1 [Example 259, (S)-(1-(7-amino-2-(furan-2-yl)thiazolo[5,4-d]pyrimidin-5-yl)pyrrolidin-2-yl)(4-(2,2-difluoropropyl)piperazin-1-yl)methanone]",8.52
6,"Nc1nc(N2CCC[C@H]2C(=O)N2CCN(CC(F)(F)C(F)F)CC2)nc2sc(-c3ccco3)nc12 [Example 260, (S)-(1-(7-amino-2-(furan-2-yl)thiazolo[5,4-d]pyrimidin-5-yl)pyrrolidin-2-yl)(4-(2,2,3,3-tetrafluoropropyl)piperazin-1-yl)methanone]",9.05
7,"Nc1nc(N2CCC[C@H]2C(=O)N2CCN(CC(F)(F)C(F)(F)F)CC2)nc2sc(-c3ccco3)nc12 [Example 261, (S)-(1-(7-amino-2-(furan-2-yl)thiazolo[5,4-d]pyrimidin-5-yl)pyrrolidin-2-yl)(4-(2,2,3,3,3-pentafluoropropyl)piperazin-1-yl)methanone]",9.05
8,"CC(C)(O)CC(=O)N1CCN(C(=O)[C@@H]2CCCN2c2nc(N)c3nc(-c4ccco4)sc3n2)CC1 [Example 262, 1-(4-((7-amino-2-(furan-2-yl)thiazolo[5,4-d]pyrimidin-5-yl)-L-prolyl)piperazin-1-yl)-3-hydroxy-3-methylbutan-1-one]",8.30
9,"CC(C)(O)CC(=O)N1CCN(C(=O)[C@@H]2CCCN2c2nc(N)c3nc(-c4ccco4)oc3n2)CC1 [Example 263, 1-(4-((7-amino-2-(furan-2-yl)oxazolo[5,4-d]pyrimidin-5-yl)-L-prolyl)piperazin-1-yl)-3-hydroxy-3-methylbutan-1-one]",7.60
10,"Nc1nc(N2CC[C@H]2C(=O)N2CCN(CCCC(F)(F)F)CC2)nc2nc(-c3ccco3)nn12 [Example 264, (S)-(1-(7-amino-2-(furan-2-yl)-[1,2,4]triazolo[1,5-a][1,3,5]triazin-5-yl)azetidin-2-yl)(4-(4,4,4-trifluorobutyl)piperazin-1-yl)methanone]",8.00
11,"CCCCN1CCC(C2CCN(C(=O)[C@@H]3CCCN3c3nc(N)n4nc(-c5ccco5)nc4n3)CC2)CC1 [Example 265, (S)-(1-(7-amino-2-(furan-2-yl)-[1,2,4]triazolo[1,5-a][1,3,5]triazin-5-yl)pyrrolidin-2-yl)(1′-butyl-[4,4′-bipiperidin]-1-yl)methanone]",7.36
12,"COCCN1CCC(C2CCN(C(=O)[C@@H]3CCCN3c3nc(N)n4nc(-c5ccco5)nc4n3)CC2)CC1 [Example 266, (S)-(1-(7-amino-2-(furan-2-yl)-[1,2,4]triazolo[1,5-a][1,3,5]triazin-5-yl)pyrrolidin-2-yl)(1′-(2-methoxyethyl)-[4,4′-bipiperidin]-1-yl) methanone]",7.82
13,"CC(C)(O)C(=O)N1CCN(C(=O)[C@@H]2CCN2c2nc(N)n3nc(-c4ccco4)nc3n2)CC1 [Example 267, (S)-1-(4-(1-(7-amino-2-(furan-2-yl)-[1,2,4]triazolo[1,5-a][1,3,5]triazin-5-yl)azetidine-2-carbonyl)piperazin-1-yl)-2-hydroxy-2-methylpropan-1-one]",7.97
14,"Nc1nc(N2CCC[C@H]2C(=O)N2CCN(CC(F)F)CC2)nc2oc(-c3ccco3)nc12 [Example 269, (S)-(1-(7-amino-2-(furan-2-yl)oxazolo[5,4-d]pyrimidin-5-yl)pyrrolidin-2-yl)(4-(2,2-difluoroethyl)piperazin-1-yl)methanone]",7.41
15,"CCC(F)(F)CN1CCN(C(=O)[C@@H]2CCCN2c2nc(N)c3nc(-c4ccco4)oc3n2)CC1 [Example 270, (S)-(1-(7-amino-2-(furan-2-yl)oxazolo[5,4-d]pyrimidin-5-yl)pyrrolidin-2-yl)(4-(2,2-difluorobutyl)piperazin-1-yl)methanone]",8.05
16,"Nc1nc(N2CCC[C@H]2C(=O)N2CCN(CC(F)(F)C(F)F)CC2)nc2oc(-c3ccco3)nc12 [Example 271, (S)-(1-(7-amino-2-(furan-2-yl)oxazolo[5,4-d]pyrimidin-5-yl)pyrrolidin-2-yl)(4-(2,2,3,3-tetrafluoropropyl)piperazin-1-yl)methanone]",8.00
17,"Nc1nc(N[C@@H](CN2CCCCC2)C(=O)N2CCN(c3ccc(F)cc3F)CC2)nc2nc(-c3ccco3)nn12 [Example 272, (S)-2-((7-amino-2-(furan-2-yl)-[1,2,4]triazolo[1,5-a][1,3,5]triazin-5-yl)amino)-1-(4-(2,4-difluorophenyl)piperazin-1-yl)-3-(piperidin-1-yl)propan-1-one]",7.82
18,Nc1nc(N[C@@H](CN2CCOCC2)C(=O)N2CCN(c3ccc(F)cc3F)CC2)nc2nc(-c3ccco3)nn12 [Example 273],7.70
19,"CC(C)(O)C(=O)N1CCN(C(=O)[C@@H]2CCCN2c2nc(N)n3nc(-c4ccco4)nc3n2)CC1 [Example 274, 1-(4-((7-amino-2-(furan-2-yl)-[1,2,4]triazolo[1,5-a][1,3,5]triazin-5-yl)-L-prolyl)piperazin-1-yl)-2-hydroxy-2-methylpropan-1-one]",8.10
20,"CC(C)(O)CC(=O)N1CCN(C(=O)[C@@H]2CCN2c2nc(N)c3nc(-c4ccco4)sc3n2)CC1 [Example 275, (S)-1-(4-(1-(7-amino-2-(furan-2-yl)thiazolo[5,4-d]pyrimidin-5-yl)azetidin-2-carbonyl)piperazin-1-yl)-3-hydroxy-3-methylbutan-1-one]",7.59
21,"Nc1nc(N2CCC[C@H]2C(=O)N2CCCN(c3ccc(F)cc3F)CC2)nc2nc(-c3ccco3)nn12 [Example 276, (S)-(1-(7-amino-2-(furan-2-yl)-[1,2,4]triazolo[1,5-a][1,3,5]triazin-5-yl)pyrrolidin-2-yl)(4-(2,4-difluorophenyl)-1,4-diazepan-1-yl)methanone]",8.15
22,"Nc1nc(N2CCC[C@H]2C(=O)N2CCCN(CC(F)(F)F)CC2)nc2nc(-c3ccco3)nn12 [Example 278, (S)-(1-(7-amino-2-(furan-2-yl)-[1,2,4]triazolo[1,5-a][1,3,5]triazin-5-yl)pyrrolidin-2-yl)(4-(2,2,2-trifluoroethyl)-1,4-diazepan-1-yl)methanone]",7.70
23,"Nc1nc(N2CCCC[C@H]2C(=O)N2CCN(CC(F)(F)C(F)F)CC2)nc2nc(-c3ccco3)nn12 [Example 279, (S)-(1-(7-amino-2-(furan-2-yl)-[1,2,4]triazolo[1,5-a][1,3,5]triazin-5-yl)piperidin-2-y1)(4-(2,2,3,3-tetrafluoropropyl)piperazin-1-yl)methanone]",7.85
24,"Nc1nc(N2CCCC[C@H]2C(=O)N2CCN(CC(F)(F)C(F)(F)F)CC2)nc2nc(-c3ccco3)nn12 [Example 280, (S)-(1-(7-amino-2-(furan-2-yl)-[1,2,4]triazolo[1,5-a][1,3,5]triazin-5-yl)piperidin-2-yl)(4-(2,2,3,3,3-pentafluoropropyl)piperazin-1-yl)methanone]",8.05
25,"Nc1nc(N2CCC[C@H]2C(=O)N2CCN(CCC(F)(F)F)CC2)nc2nc(-c3ccco3)nn12 [Example 281, (S)-(1-(7-amino-2-(furan-2-yl)-[1,2,4]triazolo[1,5-a][1,3,5]triazin-5-yl)pyrrolidin-2-yl)(4-(3,3,3-trifluoropropyl)piperazin-1-yl) methanone]",8.05
26,"CC(C)(CN1CCN(C(=O)[C@@H]2CCCN2c2nc(N)n3nc(-c4ccco4)nc3n2)CC1)C(F)(F)F [Example 282, (S)-(1-(7-amino-2-(furan-2-yl)-[1,2,4]triazolo[1,5-a][1,3,5]triazin-5-yl)pyrrolidin-2-yl)(4-(3,3,3-trifluoro-2,2-dimethylpropyl)piperazin-1-yl)methanone]",8.22
27,"Nc1nc(N2CCC[C@H]2C(=O)N2CCN(CC3(C(F)(F)F)CC3)CC2)nc2nc(-c3ccco3)nn12 [Example 283, (S)-(1-(7-amino-2-(furan-2-yl)-[1,2,4]triazolo[1,5-a][1,3,5]triazin-5-yl)pyrrolidin-2-yl)(4-((1-(trifluoromethyl)cyclopropyl)methyl)piperazin-1-yl)methanone]",7.92
28,"Nc1nc(N2CCC[C@H]2C(=O)N2CCN(CC3(C(F)(F)F)CCC3)CC2)nc2nc(-c3ccco3)nn12 [Example 284, (S)-(1-(7-amino-2-(furan-2-yl)-[1,2,4]triazolo[1,5-a][1,3,5]triazin-5-yl)pyrrolidin-2-yl)(4-((1-(trifluoromethyl)cyclobutyl)methyl)piperazin-1-yl)methanone]",8.30
29,Nc1nc(N2CCC[C@H]2C(=O)N2CCN(CC3(C(F)(F)F)CCCCC3)CC2)nc2nc(-c3ccco3)nn12 [Example 285],9.70
30,Nc1nc(N2CCC[C@H]2C(=O)N2CCN(CC3(C(F)(F)F)CCCCC3)CC2)nc2nc(-c3ccco3)nn12 [Example 286],8.70
